# Measurements as given in patent US8648070B2, “Bicyclic ring system substituted sulfonamide functionalised phenols as medicaments” (Boehringer Ingelheim International GmbH, priority 2010, dated 2014).
# Biological target: T1, human CXCR2 (Homo sapiens, UniProt P25025)
# T1 construct: expressed in transfected cells; host or cells: BAF/3 cells
# T1 sequence (P25025 1-360): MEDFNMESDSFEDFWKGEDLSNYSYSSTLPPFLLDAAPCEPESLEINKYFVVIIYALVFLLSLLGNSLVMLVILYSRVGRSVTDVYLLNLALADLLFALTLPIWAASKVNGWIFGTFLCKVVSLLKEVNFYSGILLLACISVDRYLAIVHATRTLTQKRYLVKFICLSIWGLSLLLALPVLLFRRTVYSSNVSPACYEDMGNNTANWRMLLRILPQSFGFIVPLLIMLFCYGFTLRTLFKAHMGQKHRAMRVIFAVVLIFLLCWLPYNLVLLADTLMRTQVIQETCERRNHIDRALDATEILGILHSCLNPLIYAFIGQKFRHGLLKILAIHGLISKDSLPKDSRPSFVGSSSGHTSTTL
# Experiment: Chemotaxis assay 1, transfected cell line: inhibition of CXCL1 induced chemotaxis of BAF/3 cells expressing human CXCR2
# Format: cell-based
# Settings: CXCL1 (3 nM) induced chemotaxis of BAF/3 cells expressing human CXCR2, 4 hours, Cell Titer Glo readout
# Method: Chemotaxis Assay 1, Transfected Cell Line:
# This assay measures the inhibition of CXCL1 induced chemotaxis of BAF/3 cells expressing human CXCR2. For each assay point, 100 μL of a 3×10^6/mL cell suspension are incubated with 1 μL of test compound diluted in DMSO. The bottom wells of a chemotaxis plate (5 μm pore size, Neuroprobe) is filled with 305 μL of chemotaxis buffer (RPMI 1640 medium (phenol red free), containing 2% fetal calf serum) and 3 nM CXCL1. The 5 μm pore membrane is applied onto the chemotaxis plate and 80 μL of the cell suspension is cautiously pipetted onto the membrane. The lid is put on the chemotaxis plate and the plate is incubated for 4 hours in an incubator (37° C., 5% CO2). For quantification of migrated cells, the cell suspension and the lid are removed and 100 μL from the bottom chamber are transferred to an Opti plate 96 (Perkin Elmer). 100 μL of substrate solution (provided by Cell Titer Glo kit, Promega) are added. This method uses the measurement of ATP present in metabolically active cells. After 10 min incubation at room temperature the plate is measured at Luminoscan for quantification of ATP-dependent generation of oxyluciferin. IC50s of the tested compound are calculated by non-linear regression and using a sigmoidal dose-response curve as fitting algorithm (provided by GraphPadPrism). Determination of a bottom value is performed by quantification of migration of buffer treated cells, migrating towards buffer only. Determination of a top value is performed by quantification of migration of buffer treated cells, migrating towards CXCL1.
row,SMILES,IC50 [nM]
1,CCC(Nc1c(Nc2ccc(Cl)c(S(=O)(=O)N3CCN4C(=O)CCC4C3)c2O)c(=O)c1=O)c1ccccc1 (centres unmarked) [Example 11],2.6
2,CC[C@@H](Nc1c(Nc2ccc(Cl)c(S(=O)(=O)N3CCN4CCCC4C3)c2O)c(=O)c1=O)c1ccccc1 (some centres unmarked) [Example 1],0.7
3,O=c1c(Nc2ccc(Cl)c(S(=O)(=O)N3CCN4CCOCC4C3)c2O)c(Nc2cccc(F)c2Cl)c1=O (centres unmarked) [Example 6],37.8
4,CC[C@@H](Nc1c(Nc2ccc(Cl)c(S(=O)(=O)N3CCN4CCOC[C@H]4C3)c2O)c(=O)c1=O)c1ccc(C)o1 [Example 7],4.9
5,CC[C@@H](Nc1c(Nc2ccc(Cl)c(S(=O)(=O)N3CCN4CCOCC4C3)c2O)c(=O)c1=O)c1ccc(C)o1 (some centres unmarked) [Example 5],6.8
6,CC[C@@H](Nc1c(Nc2ccc(Cl)c(S(=O)(=O)N3CCN4CCOCC4C3)c2O)c(=O)c1=O)c1ccccc1 (some centres unmarked) [Example 4],0.6
7,CC[C@@H](Nc1c(Nc2ccc(Cl)c(S(=O)(=O)N3CCN4CCOC[C@@H]4C3)c2O)c(=O)c1=O)c1ccc(C(F)(F)F)o1 [Example 10],64.8
8,CC[C@@H](Nc1c(Nc2ccc(Cl)c(S(=O)(=O)N3CCN4CCOC[C@H]4C3)c2O)c(=O)c1=O)c1ccc(C(F)(F)F)o1 [Example 8],56.6
9,CCC(Nc1c(Nc2ccc(Cl)c(S(=O)(=O)N3CCN4C(=O)CCC4C3)c2O)c(=O)c1=O)c1ccc(C)o1 (centres unmarked) [Example 12],14.4
10,CC[C@@H](Nc1c(Nc2ccc(Cl)c(S(=O)(=O)N3CCN4CCOC[C@@H]4C3)c2O)c(=O)c1=O)c1ccc(C)o1 [Example 9],13.4
11,O=c1c(Nc2ccc(Cl)c(S(=O)(=O)N3CCN4CCCC4C3)c2O)c(Nc2cccc(F)c2Cl)c1=O (centres unmarked) [Example 3],5.1
12,CC[C@@H](Nc1c(Nc2ccc(Cl)c(S(=O)(=O)N3CCN4CCCC4C3)c2O)c(=O)c1=O)c1ccc(C)o1 (some centres unmarked) [Example 2],0.9

# More lines, now with the values ahead:
row,IC50 [nM],SMILES
1,54.4,CC[C@@H](Nc1c(Nc2ccc(Cl)c(S(=O)(=O)N3CCC4(CC3)COCCN4)c2O)c(=O)c1=O)c1ccc(C(F)(F)F)o1 [Example 17]
2,33.8,CC[C@@H](Nc1c(Nc2ccc(Cl)c(S(=O)(=O)N3CCC4(CC3)COCCN4)c2O)c(=O)c1=O)c1ccccc1 [Example 15]
3,8.7,CC[C@@H](Nc1c(Nc2ccc(Cl)c(S(=O)(=O)N3CCC4(CC3)COCCN4)c2O)c(=O)c1=O)c1ccc(C)o1 [Example 16]
4,22.6,CC[C@@H](Nc1c(Nc2ccc(Cl)c(S(=O)(=O)N3CCC4(CCNC4=O)CC3)c2O)c(=O)c1=O)c1ccccc1 [Example 13]
5,149,CC[C@@H](Nc1c(Nc2ccc(Cl)c(S(=O)(=O)N3CCC4(CCCC4)CC3)c2O)c(=O)c1=O)c1ccccc1 [Example 18]
6,47.1,CC[C@@H](Nc1c(Nc2ccc(Cl)c(S(=O)(=O)N3CCC4(CCNC4=O)CC3)c2O)c(=O)c1=O)c1ccc(C)o1 [Example 14]
7,58.6,CC[C@@H](Nc1c(Nc2ccc(Cl)c(S(=O)(=O)N3C[C@H]4NCCO[C@@H]4C3)c2O)c(=O)c1=O)c1ccc(C)o1 [Example 20]
8,11.6,CC[C@@H](Nc1c(Nc2ccc(Cl)c(S(=O)(=O)N3CCC4(CCCC4)CC3)c2O)c(=O)c1=O)c1ccc(C)o1 [Example 19]
